Laboratory results from patent US20250026769A1, “PAPD5 INHIBITORS AND METHODS OF USE THEREOF” (The Children's Medical Center Corporation, priority 2021, published 2025).
Where two headings read alike, the source gives them in different places.

Key:
rPAPD5 = target: T1, rPAPD5 (Homo sapiens, UniProt Q8NDF8); assay: differential scanning fluorimetry (DSF) binding and stabilization of rPAPD5; details: for ΔTm at 100 µM: read-out: ΔTm at 100 μM; for ΔTm at 1 µM: read-out: ΔTm at 1 μM
T1 construct: made in house
Method in brief: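 Differential scanning fluorimetry was used to measure how test compounds bind and thermally stabilize rPAPD5. The reaction contained SYPRO orange dye diluted 1:5000 in […] of buffer with […], 25 mM Tris-HCl, 5 mM MgCl2 and 50 mM KCl. ΔTm was calculated relative to a DMSO control.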

[1] = test system: telomere length in DC patient iPSCs; assay: telomere length / telomere elongation in DC patient iPSCs; assay type: cell-based, human; details: for minimal effective concentration: Homo sapiens, iPSC, read-out: iPSC-based Telomere length
Experimental: Compound 266A had activity ˜2-logs higher in the in vitro RNA oligoadenylation assay compared to the parental compound cmpd. 1, approximating the activity of RG7834 (FIG. 7). […] 1. Compounds 295A and 296A had activity 2-3 logs higher in DC patient iPSCs, showing TERC maturation at 1 nM, similar to RG7834 (FIG. 6). […] Referring to Table 1D, “+” refers to activity at 1 μM, “++” refers to activity above 1 nM and below 1 μM, and “+++” refers to activity at <1 nM, “ND” refers to not determined.

[2] = test system: TERC 3′ end processing in DC patient iPSCs; assay: TERC 3′ end processing by RACE in DC patient / PARN-mutant iPSCs; assay type: cell-based, human; details: for minimal effective concentration: Homo sapiens, iPSC, read-out: iPSC-based RACE activity
Method in brief: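 Activity binned by concentration giving effect in DC patient iPSCs: "+" at 1 μM, "++" above 1 nM and below 1 μM, "+++" below 1 nM; ND, not determined.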

[3] = test system: TERC 3′ ends in human CD19+ cells recovered from mice xenotransplanted with HSPCs; assay: TERC 3′ end processing in vivo in human CD19+ cells after xenotransplantation into NBSGW mice; parameters: species or system immunodeficient NBSGW mice with human HSPCs; details: for aberrant TERC oligo-adenylation in xenotransplanted PARN-deficient human blood cells: oral, RACE amplicon sequencing
Excerpt: (§1) Example 168—Restoration of TERC 3′ end processing in vivo in human blood cells after xenotransplantation into immunodeficient mice. To determine the efficacy of orally administered exemplified compounds in primary human HSPCs and blood cells in restoring TERC processing in vivo, highly-efficient CRISPR-Cas9 ribonucleoprotein transduction was employed to disrupt the PARN gene in primary human CD34+ HSPCs or the control locus AAVS1. These genome-edited human HSPCs were xenotransplanted into immunodeficient NOD,B6.SCID Il2rg−/− KitW4l/W41 (NBSGW) mice, which engraft human HSPCs without exposure to radiation or chemotherapy. Six to ten weeks after xenotransplantation, exemplified compounds were administered for 4 to 7 days alongside controls. Thereafter, human hematopoietic cells were recovered from mouse bone marrow, and engraftment was analyzed by flow cytometry. Engrafted human hematopoietic cells were sorted for lineage markers, and CD19+ cells were used for analysis of restoration of TERC 3′ end processing by RNA-ligation mediated 3′ RACE.

[4] = test system: engraftment of CD45+, CD19+, CD34+ human blood cells; assay: engraftment of human blood cells in xenotransplanted mice by flow cytometry; assay type: in vivo, immunodeficient NBSGW mice with human HSPCs
Excerpt: as §1

[5] = test system: hepatitis B surface antigen (HBSAg) from HepG2.2.15 cells, a hepatitis B virus-expressing cell line; assay: HBsAg ELISA in supernatant of HepG2.2.15 cells; assay type: cell-based; details: HepG2.2.15, 96 h
Method in brief: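 HepG2.2.15 cells plated at 50,000/well, then exposed the next day to 3-fold compound dilutions from 100 μM to 333 pM, with DMSO vehicle as control. After 4 days at 37 °C, HBsAg in the supernatant was measured by ELISA. IC50 obtained by nonlinear fitting of averaged replicates.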

[6] = test system: TERC 3′ end processing in primary CD34+ human hematopoietic stem and progenitor cells (HSPCs); assay: TERC 3′ end processing (RACE) in CRISPR/Cas9-engineered PARN-deficient primary CD34+ HSPCs; assay type: cell-based; details: for TERC 3′ end processing by RACE at 100 nM: day 5 (FIG. 40B); for TERC 3′ end processing by RACE at 1 μM: day 5 (FIG. 40A)
Excerpt: Example 167—Restoration of TERC 3′ end processing in primary CD34+ human hematopoietic stem and progenitor cells (HSPCs). To determine the efficacy of exemplified compounds in a disease-relevant stem cell population, we employed a highly-efficient CRISPR-Cas9 ribonucleoprotein transduction strategy to disrupt the PARN gene in primary human CD34+ hematopoietic stem and progenitor cells (HSPCs), or the control locus AAVS1. FIGS. 40A and 40B show extended TERC forms in CRISPR-Cas9 engineered HSPCs deficient in PARN.

[7] = 32 mg/kg/dose twice daily for 11 doses, with 250 μM in drinking water
[8] = 100 μM test compound, shift vs DMSO control
[9] = 32 mg/kg/dose twice daily for 11 doses (FIG. 41D)
[10] = 32 mg/kg/dose twice daily for 11 doses
[11] = 10 μM test compound (Table 2a), read-out: ΔTm at 10 μM
[12] = patient iPSCs, concentration class at which activity is seen
[13] = 10 μM test compound, shift vs DMSO control, read-out: ΔTm (Table 2, starred: the compound was tested at 10 μM)
[14] = 32 mg/kg/dose every other day for 4 days

T1 sequence (Q8NDF8 68-698 isoform Q8NDF8-5 limits assumed): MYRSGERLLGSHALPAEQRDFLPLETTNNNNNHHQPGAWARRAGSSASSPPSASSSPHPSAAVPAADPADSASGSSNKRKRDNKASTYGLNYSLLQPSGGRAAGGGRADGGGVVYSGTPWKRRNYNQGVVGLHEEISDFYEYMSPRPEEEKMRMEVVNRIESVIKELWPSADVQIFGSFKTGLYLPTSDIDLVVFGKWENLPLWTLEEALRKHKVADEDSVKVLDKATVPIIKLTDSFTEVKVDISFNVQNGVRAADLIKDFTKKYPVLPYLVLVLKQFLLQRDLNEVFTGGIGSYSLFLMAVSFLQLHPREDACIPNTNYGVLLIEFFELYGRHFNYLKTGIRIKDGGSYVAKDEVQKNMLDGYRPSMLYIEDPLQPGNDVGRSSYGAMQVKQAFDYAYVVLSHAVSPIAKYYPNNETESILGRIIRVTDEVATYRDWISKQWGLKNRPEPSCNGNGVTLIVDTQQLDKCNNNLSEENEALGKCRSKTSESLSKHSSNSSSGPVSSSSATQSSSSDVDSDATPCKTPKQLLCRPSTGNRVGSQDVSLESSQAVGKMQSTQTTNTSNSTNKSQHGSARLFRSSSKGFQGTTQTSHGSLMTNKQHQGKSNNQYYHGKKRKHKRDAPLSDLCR

Compound	IC50 [5] [nM]	TERC 3′ end processing by RACE at 100 nM [6]	TERC 3′ end processing by RACE at 1 μM [6]	ΔTm at 100 µM (rPAPD5; [8]) [°C]	ΔTm at 1 µM (rPAPD5; 1 μM test compound (Table 2a)) [°C]	ΔTm at 10 µM (rPAPD5; [11]) [°C]	minimal effective concentration [1, 12] [µM]	minimal effective concentration [2, 12] [µM]	ΔTm at 10 µM (rPAPD5; [13]) [°C]	further results
O=C(O)c1cc(Cl)ccc1Nc1c(C2CCOCC2)cnc2ccc(Cl)cc12 [Compound 296A, 5-chloro-2-[(6-chloro-3-tetrahydropyran-4-yl-4-quinolyl)amino]benzoic acid]	5	maturation of TERC 3′ end processing	maturation of TERC 3′ end processing							ΔTm at 100 µM (rPAPD5): > 5 °C; concentration at which telomere elongation was observed ([1]; DC patient iPSCs, after 3-4 weeks of cell culture): 1 nM; concentration showing maturation of TERC 3′ end processing by RACE ([2]; DC patient iPSCs): 1 nM; TERC 3′ ends in human CD19+ cells (RACE) ([3]; 32 mg/kg/dose twice daily for 11 doses, with 250 μM in drinking water (FIG. 41A)): maturation of TERC 3′ ends; aberrant TERC oligo-adenylation in xenotransplanted PARN-deficient human blood cells [3, 7]: significantly reversed; engraftment of CD45+, CD19+, CD34+ human blood cells [4, 7]: no change in engraftment
O=C(O)c1cc(Cl)ccc1Nc1c(C2=CCOCC2)cnc2ccc(Cl)cc12 [Compound 297A, 5-chloro-2-[[6-chloro-3-(3,6-dihydro-2H-pyran-4-yl)-4-quinolyl]amino]benzoic acid]	42			> 5						TERC 3′ ends in human CD19+ cells (RACE) [3, 9]: maturation of TERC 3′ ends; engraftment of CD45+, CD19+, CD34+ human blood cells [4, 10]: no change in engraftment
O=C(O)c1cc(Cl)ccc1Nc1c(N2CCOCC2)cnc2ccc(Cl)cc12 [Compound 339A, 5-chloro-2-[(6-chloro-3-morpholino-4-quinolyl)amino]benzoic acid]	75	maturation of TERC 3′ end processing	maturation of TERC 3′ end processing	> 5	> 5	> 5	< 0.001	< 0.001		TERC 3′ ends in human CD19+ cells (RACE) ([3]; 1 mM in drinking water for 7 days (FIG. 41C)): maturation of TERC 3′ ends; engraftment of CD45+, CD19+, CD34+ human blood cells ([4]; 1 mM in drinking water for 7 days): no change in engraftment
O=C(O)c1cc(Cl)ccc1Nc1c(C2=CCC(F)(F)CC2)cnc2ccc(Cl)cc12 [Compound 344A, 5-chloro-2-[[6-chloro-3-(4,4-difluorocyclohexen-1-yl)-4-quinolyl]amino]benzoic acid]	600				> 5	> 5	< 0.001	< 0.001	> 5	TERC 3′ ends in human CD19+ cells (RACE) ([3]; 32 mg/kg/dose every other day for 4 days (FIG. 41B)): maturation of TERC 3′ ends; aberrant TERC oligo-adenylation in xenotransplanted PARN-deficient human blood cells [3, 14]: significantly reversed; engraftment of CD45+, CD19+, CD34+ human blood cells [4, 14]: no change in engraftment
O=C(O)c1cc(Cl)ccc1Nc1c(N2CCC(F)CC2)cnc2ccc(Cl)cc12 [Compound 392A, 5-chloro-2-[[6-chloro-3-(4-fluoro-1-piperidyl)-4-quinolyl]amino]benzoic acid]	95	maturation of TERC 3′ end processing	maturation of TERC 3′ end processing		> 5	> 5	< 0.001	< 0.001	> 5	TERC 3′ ends in human CD19+ cells (RACE) [3, 9]: maturation of TERC 3′ ends; engraftment of CD45+, CD19+, CD34+ human blood cells [4, 10]: no change in engraftment
O=C(O)c1cc(Cl)ccc1Nc1c(N2CCC(Cl)CC2)cnc2ccc(Cl)cc12 [Compound 393A, 5-chloro-2-((6-chloro-3-(4-chloropiperidin-1-yl)quinolin-4-yl)amino)benzoic acid]	282	maturation of TERC 3′ end processing			> 5	> 5	< 0.001	< 0.001	> 5	
O=C1CCC(c2cnc3ccc(Cl)cc3c2Nc2ccc(Cl)cc2C(=O)O)CC1 [Compound 404A, 5-chloro-2-[[6-chloro-3-(4-oxocyclohexyl)-4-quinolyl]amino]benzoic acid]	35	maturation of TERC 3′ end processing			> 5	> 5	< 0.001	< 0.001	> 5	
Cc1cc(Cl)cc2c(Nc3ccc(Cl)cc3C(=O)O)c(S(=O)(=O)N3CCSCC3)cnc12 [Compound 417A, 5-chloro-2-[(6-chloro-8-methyl-3-thiomorpholinosulfonyl-4-quinolyl)amino]benzoic acid]	71		maturation of TERC 3′ end processing							ΔTm at 10 µM (rPAPD5; read-out: ΔTm (Table 2, starred: the compound was tested at 10 μM)): > 5 °C; ΔTm at 1 µM (rPAPD5): > 5 °C; ΔTm at 10 µM (rPAPD5; read-out: ΔTm at 10 μM): > 5 °C; minimal effective concentration [1]: < 0.001 µM; minimal effective concentration [2]: < 0.001 µM
O=C(O)c1cc(Cl)ccc1Nc1c(S(=O)(=O)N2CCSCC2)cnc2c(Cl)cc(Cl)cc12 [Compound 420A, 5-chloro-2-[(6,8-dichloro-3-thiomorpholinosulfonyl-4-quinolyl)amino]benzoic acid]	100		maturation of TERC 3′ end processing		> 5	> 5	< 0.001	< 0.001	> 5	
O=C(O)c1cc(Cl)ccc1Nc1c(CN2CCSCC2)cnc2ccc(Cl)cc12 [Compound 428A, 5-chloro-2-[[6-chloro-3-(thiomorpholinomethyl)-4-quinolyl]amino]benzoic acid]	22		maturation of TERC 3′ end processing	> 5	> 5	> 5	< 0.001	< 0.001		
